Patent US8877889B2, “Tumor cell-killing peptides” (Industry-Academic Cooperation Foundation, Chosun University, priority 2009, dated 2014)
“Also recorded” adds a separate entry of the source. No end group written: not given here.

Key:
[1] = test system: CT26 mouse colon carcinoma cells; assay: Tumor cell killing activity, bright field images; type: cell-based; settings: 10 μM peptide (FIG. 9A)
Description: (A) CT26 cells were treated with 10 μM MTD, TU1:MTD, TU2:MTD, or TU3:MTD peptides, and bright field images for indicated peptides were obtained at indicated time points. Representative images of at least 3 individual experiments were presented.

CT-26 cells = assay: Syngeneic animal tumor model; type: in vivo; settings: Balb/c mice with CT26 tumors; for tumor size (tumor volume) versus PBS: i.v. tail vein every two days, TU2:MTD 385 μg/mouse, TU3:MTD 230 μg/mouse; for cell death of tumor cells, histochemical examination of tumors: i.v., hematoxylin and eosin
Description: (§1) (A) CT26 cells were injected subcutaneously into the Balb/c mice. Tumor cells were grown for 7 days, and TU2:MTD peptide (385 μg/mouse) or PBS was intravenously injected through the tail vein (n=10 animals/group) every two days from day 7 to day 19. Tumor volume was calculated as the longest diameter×width2×0.5.
(B) TU3:MTD peptide (230 μg/mouse) or PBS were intravenously injected to the Balb/c mice bearing tumor through the tail vein (n=5 animals/group) every two days from day 8 to day 20. Tumor volume was measured as described above.
(C) Tumors were obtained from the mice treated with PBS, TU2:MTD or TU3:MTD upon sacrificing the mice, and were stained with hematoxylin and eosin. Images (400× magnification) at tumor regions were obtained (left), and the boxed region were enlarged (right).
as §1, with “(B)” for “(A)”, “weights were measured after mice were sacrificed.” for “volume was calculated as the longest diameter×width2×0.5.”
(C) TU3:MTD peptide (230 μg/mouse) or PBS were intravenously injected to the Balb/c mice bearing tumor through the tail vein (n=5 animals/group) every two days from day 8 to day 20. Tumor weights were measured as described above.
(§2) We followed the university's institutional guidelines and regulations for animal experiments. Tumors were established in Balb/c mice by subcutaneous injection of CT-26 cells (1.5×10^5 cells) into the mouse as described (14). Tumor volume was calculated as length×width^2×0.5. Tumor cells were grown for 7 to 8 days, and TU2:MTD peptide (385 μg/mouse), TU3:MTD peptide (230 μg/mouse), or PBS was intravenously injected through the tail vein every two days until the mice were sacrificed.

[2] = Toxicity in peptide-injected mice (histology of skin, liver, kidney; body weight); type: in vivo, Balb/c mice; settings: for apparent toxic effects in mice: i.v. injected mice; for damage in liver and kidney tissues, microscopic analysis: mice injected seven times every two days; for body weight loss: peptide-injected mice; for cell death in dermis and epidermis regions: peptide-injected tumor-bearing mice, hematoxylin and eosin
Text: (D) Images (400× magnification) of liver and kidney from normal mice or mice treated with, PBS, TU2:MTD or TU3:MTD peptides seven times every two days were obtained after stained with hematoxylin and eosin.
(D) Images (100× magnification) of dermis and epidermis region of normal skin or adjacent to tumor treated with PBS, TU2:MTD or TU3:MTD peptides were obtained after stained with hematoxylin and eosin.
as §2

HeLa cells [3] = assay: Cell death assayed by cell counting kit-8, with or without caspase inhibitor pre-treatment; type: cell-based; settings: 5 μM peptide for 5 hours (FIG. 2C)
Description: (C) HeLa cells were pre-treated with zVAD-fmk (25 μM) or IDN-6556 (25 μM) 1 hour before MTD-peptide treatment. After treatment of 5 μM of R8, ΔR8-MTD, and R8:MTD peptides for 5 hours, cell death was assayed by cell counting kit-8 (Dojindo Molecular Technologies, Rockville, USA).

HeLa cells [4] = assay: Peptide-induced cell death, counting dead and survived cells under the light microscope; type: cell-based; settings: peptides 10 μM, 20 μM, 30 μM, 10 minutes after treatment (FIG. 1B, 3A)
Description: (B) HeLa cells were treated with DMSO or the indicated peptides in increasing doses (10 μM, 20 μM, and 30 μM). % of cell death was determined at 10 minutes after treatment by counting the dead cells and survived cells under the light microscope.
(E) HeLa cells were transfected with substitution mutants of MTD peptide.
HeLa cells were treated with DMSO or with the indicated peptides at increasing doses (10 μM, 20 μM, or 30 μM). % cell death was determined 10 minutes after treatment by counting the dead cells and survived cells (300 cells per sample) under the light microscope.
(D) HeLa cells were treated with indicated amounts of MTD peptide for 1 hour, 2 hours, or 5 hours. % cell death was calculated by counting the dead cells and survived cells (200 to 500 cells per sample) under the light microscope. Data represent the means±SD of three independent experiments.

NCI-H460 cells = assay: Peptide-induced cell death in NCI-H460 cells; type: cell-based; settings: 5 μM, 2 or 5 hours (FIG. 3C)
Description: (C) NCI-H460 cells were treated with indicated peptides for 2 hours or 5 hours. % cell death was determined as described above.

[5] = test system: Isolated mouse liver mitochondria; assay: Isolated mitochondria treated with peptide, transmission electron microscopy; settings: 10 μM peptide; 1 hour at 30° C.
Description: (D) Isolated mouse liver mitochondria were treated with buffer (NT), MTD peptide (10 μM), or MTDmt5 peptide (10 μM), and then incubated for 1 hour at 30° C. Mitochondria were harvested by centrifugation (10,000×rpm) and then processed for transmission electron microscopy. Images (upper panel) were obtained with 7,000× magnification, and the relative mitochondrial sizes (lower panel) were calculated by measuring the diameters of about 40 individual mitochondria.
Jurkat cells or isolated mitochondria treated with MTD peptides were harvested by centrifugation and fixed with 2.5% glutaraldehyde for 2 hours followed by washing with 0.2 M sodium cacodylate buffer (pH 7.2) three times for 10-20 minutes. Fixation step was repeated overnight and washed with 0.2 M sodium cacodylate buffer three times. Samples were dehydrated with following sequential solutions 60% ethanol, 70% ethanol, 80% ethanol, 90% ethanol, 95% ethanol, and 100% ethanol twice for 20 minutes at 4° C., and then infiltrated by propylene oxide three times for 20 minutes. Samples were embedded with the mixture of propylene oxide and epon for 6 hours. Electron microscopic images were obtained using the Hitachi H-7600 electron microscope (80 kV, Hitachi, Tokyo, Japan). Mitochondria were isolated from mouse liver as previously described (1).

HeLa cells [6] = assay: Caspase activation, western blot of cell lysates; type: cell-based; settings: 5 μM peptide
Description: (E) After treatment with the MTD peptide, MTDmt4, or MTDmt5 (5 μM) in HeLa cells, cell lysates were prepared at indicated times. Equal amounts of proteins were subjected to the SDS-PAGE and blotted onto PVDF membrane. After blocked with 5% nonfat milk in TBST (10 mM Tris-HCl, pH 7.5, 100 mM NaCl and 0.1% Tween-20), the membrane was probed with anti-caspase-3 (SantaCruz Biotechnology, Inc., Santa Cruz, Calif., USA), anti-caspase-8 (Cell signaling technology, Beverly, Mass., USA), anti-caspase-9 (SantaCruz Biotechnology, Inc., Santa Cruz, Calif.), anti-XIAP (Upstate Biotechnology, Dundee, United Kingdom), or anti-Bid (home-made) antibodies. Anti-actin antibody (Chemicon International, Inc., Temecula, Calif., USA) was used as equal loading control.

HeLa cells [7] = assay: Measurement of intracellular calcium with Fluo-4-AM; type: cell-based; settings: 3 μM peptide
Description: (A-C) HeLa cells were loaded with 3 μM Fluo-4-AM for 30 minutes and then treated with 3 μM of indicated peptides (A: MTD, B: MTDmt3, C: MTDmt5). Fluorescence images and bright-field images were obtained with the laser scanning confocal microscope at 5-second intervals for 5 minutes. Relative fluorescence intensities (F/F0) at two region-of-interests (ROI 1 and 2) were measured at 5-second intervals for 5 minutes.
(E-G) HeLa cells were pretreated in calcium free KRB media alone (E), in KRB media with 10 μM 2-APB and 20 μM Ryanodine (F), or in KRB media with freshly made 30 μM CsA (G) for 2 hours. HeLa cells were then loaded with 3 μM Fluo-4-AM for 30 minutes and treated with 3 μM of MTD peptide. Images were obtained with the laser scanning confocal microscope at 5-second intervals for 5 minutes. Relative fluorescence intensities (F/F0) at two region-of-interests (ROI 1 and 2) were measured at 5-second intervals for 5 minutes.
For Ca^2+ measurements in the cytosol, HeLa cells were cultured in an Lab-Tek™ Chamber glass slide and loaded with Fluo-4-AM (Fluo-4-acetoxymethyl ester) at a final concentration of 3 μM for 30 minutes, followed by washing with PBS (Phosphate buffered saline) at pH 7.4 and the addition of fresh Ca^2+-free Krebs-ringer modified buffer (KRB: 125 mM NaCl, 5 mM KCl, 1 mM Na3PO4, 1 mM MgSO4, 5.5 mM glucose, and 20 mM HEPES, pH 7.4, at 37° C.) containing the indicated peptides. Time-lapse images were obtained at 488 nm excitation with the Argon laser scanning confocal microscope (Leica TCS SP5 Microsystems, Mannheim, Germany) at 10-second intervals for 5 minutes to visualize Fluo-4-AM.

HeLa cells [8] = assay: Cytochrome c release by immunofluorescence; type: cell-based; settings: HeLa cells transfected; 2 days in the presence of zVAD-fmk
Description: (B) Plasmids (control vector or Noxa WT fused to GFP) were transfected into HeLa cells. After 2 days in the presence of zVAD-fmk, cytochrome c was stained with anti-cytochrome c antibody. Arrows indicate the diffused cytochrome c staining (upper panel). The release of cytochrome c was analyzed by immunofluorescence in HeLa cells after treatment with MTD peptides (5 μM) (lower panel).

HeLa cells [9] = assay: Cell death after transfection of Noxa constructs, counting EGFP-positive dead cells; type: cell-based
Description: (D) HeLa cells were transfected with deletion mutants of Noxa. At 11 hrs, 24 hrs, and 36 hrs after transfection, cell death was determined by counting EGFP-positive dead cells with morphological changes using the fluorescent microscope.
(B) HeLa cells were transfected with WT or with the indicated Noxa mutants. 20 hours after transfection cell death was determined by counting the EGFP-positive dead and survived cells under the fluorescent microscope.
(A) HeLa cells were transfected with either WT Noxa, 4Lmt (L42A, L43A, L45A, L49A), or 5Lmt (L29A, L42A, L43A, L45A, L49A) constructs. At the indicated times after transfection, cell death was determined by counting the EGFP-positive dead cells with morphological changes under the fluorescent microscope.
HeLa cells were transfected with EGFP-Noxa WT and 41-54 in combination with Bcl-2 expression plasmid or in the presence of zVAD-fmk (25 μM). 18 hours after transfection, cell death was determined by counting EGFP-positive dead cells with morphological changes using the fluorescent microscope. Data represent an average±SD of three experiments each with 200 total cells counted.
The percentage of cell death was determined by counting EGFP-positive dead cells with morphology using the fluorescent microscope. Minimally, 300 cells in three separate fields were counted for each measurement.

Substance	tumor cell killing activity [1]	tumor size (tumor volume) versus PBS (CT-26 cells)	cell death of tumor cells, histochemical examination of tumors (CT-26 cells)	apparent toxic effects in mice [2]	damage in liver and kidney tissues, microscopic analysis [2]	body weight loss [2]	cell death in dermis and epidermis regions [2]	further results
CGNKRTRGCGGKLLNLISKLF (TU3-MTD fusion peptide derived from Homo sapiens) [TU3:MTD]	comparable killing activities to MTD peptide	significantly smaller tumors	massive cell death of tumor cells	do not show apparent toxic effects	no damages in liver and kidney tissues	no body weight loss	no or little cell death	–
CNGRCVSGCAGRCGGKLLNLISKLF (TU2-MTD fusion peptide derived from Homo sapiens) [TU2:MTD]	comparable killing activities to MTD peptide	significantly smaller tumors	massive cell death of tumor cells	do not show apparent toxic effects	no damages in liver and kidney tissues	no body weight loss	no or little cell death	–
KLLNLISKLF [ΔR8:MTD]	–	–	–	–	–	–	–	cell death (HeLa cells [3]): could not cause cell death; also recorded: no cell death-inducing activity
RRRRRRRRGRQKLLNLISKAA (PTD-MTDmt5 fusion peptide derived from Homo sapiens)	–	–	–	–	–	–	–	cell death-inducing activity (% of cell death) (HeLa cells [4]): no killing activity; also recorded: completely lost their cell death-inducing activities; also recorded: no cell death; susceptibility of cells to peptide (NCI-H460 cells): not; morphological changes or mitochondrial size changes of isolated mitochondria [5]: did not show any morphological changes or mitochondrial size changes; caspase activation (HeLa cells [6]): not activated; cytosolic calcium level change (HeLa cells [7]): did not induce changes in the cytosolic calcium level
WT Noxa: wild type Noxa (1-54) expressed from pEGFP-Noxa by transfection (MPGKKARKNAQPSPARAPAELEVECATQLRRFGDKLNFRQKLLNLISKLFCSGT; cysteine pairing not given here; also: EGFP fusion (pEGFP-Noxa); UniProt Q13794 1-54, looked up)	–	–	–	–	–	–	–	cytochrome c release from mitochondria (HeLa cells [8]): able to release the cytochrome c from mitochondria; cell death (HeLa cells [9]; HeLa cells transfected (FIG. 8A)): more than 60%; cell death after over-expression (HeLa cells [9]; HeLa cells, within 11 hrs after transfection (FIG. 1D)): induced cell death within 11 hrs; inhibition of transfection-induced cell death by zVAD-fmk (HeLa cells [9]; HeLa cells, zVAD-fmk 25 μM, 18 hours after transfection (FIG. 10)): significantly inhibited by zVAD-fmk
